Results reported in patent publication US20070004660A1, “Synergistic Modulation of Flt3 Kinase Using Alkylquinolines and Alkylquinazolines” (priority 2005, published 2007).
Structures can show the parent of a compound that is named as a salt.

Biological target: T1, wild-type FLT3 receptor (Homo sapiens, UniProt P36888)
T1 construct: host or cells: Baf3 (murine B cell lymphoma line), stably transfected
T1 sequence (P36888 27-993): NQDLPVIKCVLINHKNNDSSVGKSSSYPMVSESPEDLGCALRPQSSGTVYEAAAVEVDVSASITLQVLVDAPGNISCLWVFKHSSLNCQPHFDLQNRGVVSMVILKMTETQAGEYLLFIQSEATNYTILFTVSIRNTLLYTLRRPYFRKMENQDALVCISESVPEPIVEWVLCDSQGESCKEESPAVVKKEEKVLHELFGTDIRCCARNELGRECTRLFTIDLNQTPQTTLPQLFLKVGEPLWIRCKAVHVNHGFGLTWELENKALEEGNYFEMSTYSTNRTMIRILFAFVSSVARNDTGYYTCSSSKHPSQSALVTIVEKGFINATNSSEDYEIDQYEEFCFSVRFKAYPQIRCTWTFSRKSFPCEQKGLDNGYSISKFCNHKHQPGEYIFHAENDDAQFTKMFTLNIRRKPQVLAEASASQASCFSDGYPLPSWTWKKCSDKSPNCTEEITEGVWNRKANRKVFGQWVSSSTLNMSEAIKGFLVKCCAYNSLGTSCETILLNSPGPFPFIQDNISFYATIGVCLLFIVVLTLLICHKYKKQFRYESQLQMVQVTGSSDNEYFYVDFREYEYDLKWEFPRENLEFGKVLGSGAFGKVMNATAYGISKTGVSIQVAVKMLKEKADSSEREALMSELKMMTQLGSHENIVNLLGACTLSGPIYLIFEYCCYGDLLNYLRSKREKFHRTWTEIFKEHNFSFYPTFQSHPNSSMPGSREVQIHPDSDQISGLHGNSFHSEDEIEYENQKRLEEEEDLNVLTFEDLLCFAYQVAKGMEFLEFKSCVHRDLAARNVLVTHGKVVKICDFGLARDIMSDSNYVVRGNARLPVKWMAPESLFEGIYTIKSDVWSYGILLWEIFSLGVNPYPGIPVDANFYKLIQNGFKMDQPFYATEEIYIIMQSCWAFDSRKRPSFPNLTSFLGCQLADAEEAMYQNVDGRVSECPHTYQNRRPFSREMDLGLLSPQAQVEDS
Test: Cell-based FLT3 receptor ELISA (FLT ligand-induced phosphorylation in Baf3 FLT3 cells)
Details: 100 ng/mL Flt ligand, uncertainty ±20%
Outline: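 Receptor phosphotyrosine measured by sandwich ELISA (anti-FLT3 capture, HRP anti-pTyr, luminescence) in FLT3-transfected murine Baf3 cells given 1 h compound pretreatment and 10 min 100 ng/mL FLT ligand after overnight low-serum starvation; triplicates, IC50 from nonlinear regression.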

Row | IC50 | Compound
1 | 27 nM | CN1CCN(c2ccc3c(C4CCN(C(=O)Nc5ccc(N6CCOCC6)cc5)CC4)ncnc3c2)CC1 [Example 135, 4-[7-(4-Methyl-piperazin-1-yl)-quinazolin-4-yl]-piperidine-1-carboxylic acid (4-morpholin-4-yl-phenyl)-amide]
2 | 5100 nM | COc1cc2ncnc(C3CCN(C(=O)Nc4ccc(CO)cc4)CC3)c2cc1OC [Example 22, 4-(6,7-Dimethoxy-quinazolin-4-yl)-piperidine-1-carboxylic acid (4-hydroxymethyl-phenyl)-amide]
3 | 31 nM | O=C1CN(c2ccc3c(C4CCN(C(=O)Nc5ccc(N6CCCC6)cc5)CC4)ncnc3c2)CCN1 [Compound 183, 4-[7-(3-Oxo-piperazin-1-yl)-quinazolin-4-yl]-piperidine-1-carboxylic acid (4-pyrrolidin-1-yl-phenyl)-amide]
4 | 17 nM | COc1cc2ncnc(C3CCN(C(=O)Nc4ccc(OC(C)C)cc4)CC3)c2cc1OC [Example 1, 4-(6,7-Dimethoxy-quinazolin-4-yl)-piperidine-1-carboxylic acid (4-isopropoxy-phenyl)-amide hydrochloride]
5 | 2 nM | CC(=O)N1CC[C@@H](Oc2ccc3c(C4CCN(C(=O)Nc5ccc(N6CCCC6)cc5)CC4)ncnc3c2)C1 [Example 154, (R)-4-[7-(1-Acetyl-pyrrolidin-3-yloxy)-quinazolin-4-yl]-piperidine-1-carboxylic acid (4-pyrrolidin-1-yl-phenyl)-amide]
6 | 3 nM | O=C(Nc1ccc(N2CCOCC2)cc1)N1CCC(c2ncnc3cc(N4CCC(F)CC4)ccc23)CC1 [Compound 196, 4-[7-(4-Fluoro-piperidin-1-yl)-quinazolin-4-yl]-piperidine-1-carboxylic acid (4-morpholin-4-yl-phenyl)-amide]
7 | 31 nM | O=C(Nc1ccc(N2CCOCC2)cc1)N1CCC(c2ncnc3cc(N4CCNCC4)ccc23)CC1 [Example 140, 4-(7-Piperazin-1-yl-quinazolin-4-yl)-piperidine-1-carboxylic acid (4-morpholin-4-yl-phenyl)-amide]
8 | 0.2 nM | O=C(Nc1ccc(N2CCCC2)cc1)N1CCC(c2ncnc3cc(OCCN4CCOC4=O)ccc23)CC1 [Example 147, 4-{7-[2-(2-Oxo-oxazolidin-3-yl)-ethoxy]-quinazolin-4-yl}-piperidine-1-carboxylic acid (4-pyrrolidin-1-yl-phenyl)-amide]
9 | 4 nM | CC(=O)N1CC(Oc2ccc3c(C4CCN(C(=O)Nc5ccc(N6CCCC6)cc5)CC4)ncnc3c2)C1 [Example 170, 4-[7-(1-Acetyl-azetidin-3-yloxy)-quinazolin-4-yl]-piperidine-1-carboxylic acid (4-pyrrolidin-1-yl-phenyl)-amide]
10 | 81 nM | O=C(Nc1ccc(N2CCCC2)cc1)N1CCC(c2ncnc3cc(N4CCC(F)CC4)ccc23)CC1 [Compound 195, 4-[7-(4-Fluoro-piperidin-1-yl)-quinazolin-4-yl]-piperidine-1-carboxylic acid (4-pyrrolidin-1-yl-phenyl)-amide]
11 | 2 nM | O=C(Nc1ccc(N2CCCC2)cc1)N1CCC(c2ncnc3cc(OCCO)ccc23)CC1 [Example 169, 4-[7-(2-Hydroxy-ethoxy)-quinazolin-4-yl]-piperidine-1-carboxylic acid (4-pyrrolidin-1-yl-phenyl)-amide]
12 | 7 nM | O=C(Nc1ccc(N2CCCC2)cc1)N1CCC(c2ncnc3cc(N4CCOC4=O)ccc23)CC1 [Example 176, 4-[7-(2-Oxo-oxazolidin-3-yl)-quinazolin-4-yl]-piperidine-1-carboxylic acid (4-pyrrolidin-1-yl-phenyl)-amide]
13 | 36 nM | CCN1CCN(c2ccc3c(C4CCN(C(=O)Nc5ccc(N6CCOCC6)cc5)CC4)ncnc3c2)CC1 [Example 136, 4-[7-(4-Ethyl-piperazin-1-yl)-quinazolin-4-yl]-piperidine-1-carboxylic acid (4-morpholin-4-yl-phenyl)-amide]
14 | 144 nM | O=C(Nc1ccc(N2CCCC2)cc1)N1CCC(c2ncnc3cc(O[C@@H]4CCOC4)ccc23)CC1 [Compound 191, (R)-4-[7-(Tetrahydro-furan-3-yloxy)-quinazolin-4-yl]-piperidine-1-carboxylic acid (4-pyrrolidin-1-yl-phenyl)-amide]
15 | 45 nM | CN1CCC[C@H]1COc1ccc2c(C3CCN(C(=O)Nc4ccc(N5CCCC5)cc4)CC3)ncnc2c1 [Example 151, (S)-4-[7-(1-Methyl-pyrrolidin-2-ylmethoxy)-quinazolin-4-yl]-piperidine-1-carboxylic acid (4-pyrrolidin-1-yl-phenyl)-amide]
16 | 0.4 nM | CNC(=O)C1CCN(c2ccc3c(C4CCN(C(=O)Nc5ccc(N6CCCC6)cc5)CC4)ncnc3c2)CC1 [Example 155, 4-[7-(4-Carboxylic acid methylamide-piperidin-1-yl)-quinazolin-4-yl]-piperidine-1-carboxylic acid (4-pyrrolidin-1-yl-phenyl)-amide]
17 | 149 nM | O=C(COc1ccc2c(C3CCN(C(=O)Nc4ccc(N5CCCC5)cc4)CC3)ncnc2c1)N1CCOCC1 [Example 172, 4-[7-(2-Morpholin-4-yl-2-oxo-ethoxy)-quinazolin-4-yl]-piperidine-1-carboxylic acid (4-pyrrolidin-1-yl-phenyl)-amide]
18 | 6 nM | CN1CCN(c2ccc3c(C4CCN(C(=O)Nc5ccc(N6CCCC6)cc5)CC4)ncnc3c2)CC1 [Example 159, 4-[7-(4-Methyl-piperazin-1-yl)-quinazolin-4-yl]-piperidine-1-carboxylic acid (4-pyrrolidin-1-yl-phenyl)-amide]
19 | 15 nM | CN1CCN(CCOc2ccc3c(C4CCN(C(=O)Nc5ccc(N6CCCC6)cc5)CC4)ncnc3c2)CC1=O [Compound 202, 4-{7-[2-(4-Methyl-3-oxo-piperazin-1-yl)-ethoxy]-quinazolin-4-yl}-piperidine-1-carboxylic acid (4-pyrrolidin-1-yl-phenyl)-amide]
20 | 98 nM | CN1CCN(c2ccc3c(C4CCN(C(=O)Nc5ccc(N6CCCC6)cc5)CC4)ncnc3c2)CC1=O [Compound 184, 4-[7-(4-Methyl-3-oxo-piperazin-1-yl)-quinazolin-4-yl]-piperidine-1-carboxylic acid (4-pyrrolidin-1-yl-phenyl)-amide]
21 | 6 nM | CN1CCN(CCCOc2cc3ncnc(C4CCN(C(=O)Nc5ccc(N6CCOCC6)cc5)CC4)c3cc2F)CC1 [Compound 205, 4-{6-Fluoro-7-[3-(4-methyl-piperazin-1-yl)-propoxy]-quinazolin-4-yl}-piperidine-1-carboxylic acid (4-morpholin-4-yl-phenyl)-amide]
22 | 110 nM | O=C(Nc1ccc(N2CCOCC2)cc1)N1CCC(c2ncnc3cc(OCCN4CCC[C@H]4CO)ccc23)CC1 [Example 153, (S)-4-{7-[2-(2-Hydroxymethyl-pyrrolidin-1-yl)-ethoxy]-quinazolin-4-yl}-piperidine-1-carboxylic acid (4-morpholin-4-yl-phenyl)-amide]
23 | 336 nM | CC(C)c1ccc(NC(=O)CN2CCC(c3ncnc4ccccc34)CC2)cc1 [Example 16, N-(4-Isopropyl-phenyl)-2-(4-quinazolin-4-yl-piperidin-1-yl)-acetamide]
24 | 93 nM | O=C(Nc1ccc(N2CCCC2)cc1)N1CCC(c2ncnc3cc(OCC4CCOCC4)ccc23)CC1 [Compound 188, 4-[7-(Tetrahydro-pyran-4-ylmethoxy)-quinazolin-4-yl]-piperidine-1-carboxylic acid (4-pyrrolidin-1-yl-phenyl)-amide]
25 | 32 nM | CN1CCN(CCOc2ccc3c(C4CCN(C(=O)Nc5ccc(N6CCOCC6)cc5)CC4)ncnc3c2)CC1 [Example 156, 4-{7-[2-(4-Methyl-piperazin-1-yl)-ethoxy]-quinazolin-4-yl}-piperidine-1-carboxylic acid (4-morpholin-4-yl-phenyl)-amide]
26 | 10 nM | O=C(Nc1ccc(N2CCCC2)cc1)N1CCC(c2ncnc3cc(-n4ccnc4)ccc23)CC1 [Compound 180, 4-(7-Imidazol-1-yl-quinazolin-4-yl)-piperidine-1-carboxylic acid (4-pyrrolidin-1-yl-phenyl)-amide]
27 | 3 nM | CS(=O)(=O)N1CCN(c2ccc3c(C4CCN(C(=O)Nc5ccc(N6CCCC6)cc5)CC4)ncnc3c2)CC1 [Example 167, 4-[7-(4-Methanesulfonyl-piperazin-1-yl)-quinazolin-4-yl]-piperidine-1-carboxylic acid (4-pyrrolidin-1-yl-phenyl)-amide]
